One may read the melting point as the temperature of the solid-liquid transition. Regarding `C[Si](C)(C)C#Cc1cccc(C2=Nc3ccc(C#Cc4ccccc4)cc3NC(=O)C2)c1`, the melting point is 169 to 171 °C (dec.).

With `Cc1ccc(C#Cc2ccc3c(c2)NC(=O)CC(c2cccc(C#N)c2)=N3)cc1` [Example 3, 3-(4-Oxo-7-p-tolylethynyl-4,5-dihydro-3H-benzo[b][1,4]diazepin-2-yl)-benzonitrile], the melting point was 236 to 239 °C (dec.). The same measure for `N#Cc1cccc(C2=Nc3ccc(C#Cc4ccccc4Cl)cc3NC(=O)C2)c1` [Example 4, 3-[7-(2-Chloro-phenylethynyl)-4-oxo-4,5-dihydro-3H-benzo[b][1,4]diazepin-2-yl]-benzonitrile]: 239 to 240 °C (dec.); for `COc1ccc(-c2ccc3c(c2)NC(=O)CC(c2cccc(C#N)c2)=N3)cc1` [Example 6, 3-[7-(4-Methoxy-phenyl)-4-oxo-4,5-dihydro-3H-benzo[b][1,4]diazepin-2-yl]-benzonitrile]: 236 to 237 °C (dec.). Then `N#Cc1cccc(C2=Nc3ccc(-c4ccsc4)cc3NC(=O)C2)c1` [Example 7, 3-(4-Oxo-7-thiophen-3-yl-4,5-dihydro-3H-benzo[b][1,4]diazepin-2-yl)-benzonitrile], with 238 to 243 °C (dec.); and `N#Cc1cccc(C2=Nc3ccc(-c4ccco4)cc3NC(=O)C2)c1` [Example 8, 3-(7-Furan-2-yl-4-oxo-4,5-dihydro-3H-benzo[b][1,4]diazepin-2-yl)-benzonitrile], with 205 to 210 °C (dec.); and `CCc1ccc(-c2ccc3c(c2)NC(=O)CC(c2cccc(C#N)c2)=N3)cc1` [Example 9, 3-[7-(4-Ethyl-phenyl)-4-oxo-4,5-dihydro-3H-benzo[b][1,4]diazepin-2-yl]-benzonitrile], with 225 to 229 °C (dec.). Then `N#Cc1cccc(C2=Nc3ccc(-c4ccccc4)cc3NC(=O)C2)c1` [Example 10, 3-(4-Oxo-7-phenyl-4,5-dihydro-3H-benzo[b][1,4]diazepin-2-yl)-benzonitrile], with 238 to 240 °C (dec.); and `O=C1CC(c2cccc(I)c2)=Nc2ccc(C#Cc3ccccc3)cc2N1` [Example 11, 4-(3-Iodo-phenyl)-8-phenylethynyl-1,3-dihydro-benzo[b][1,4]diazepin-2-one], with 227 to 229 °C (dec.); and `O=C1CC(c2ccncc2)=Nc2ccc(C#Cc3ccccc3)cc2N1` [Example 12, 8-Phenylethynyl-4-pyridin-4-yl-1,3-dihydro-benzo[b][1,4]diazepin-2-one], with 198 to 200 °C (dec.).

`N#Cc1cccc(C2=Nc3ccc(-c4ccoc4)cc3NC(=O)C2)c1` [Example 14, 3-(7-Furan-3-yl-4-oxo-4,5-dihydro-3H-benzo[b][1,4]diazepin-2-yl)-benzonitrile]: the melting point was 228 to 233 °C (dec.).

Take `N#Cc1cccc(C2=Nc3ccc(-c4ccc(Cl)cc4)cc3NC(=O)C2)c1` [Example 15, 3-[7-(4-Chloro-phenyl)-4-oxo-4,5-dihydro-3H-benzo[b][1,4]diazepin-2-yl]-benzonitrile]: the melting point was 244 to 250 °C (dec.). Regarding `N#Cc1cccc(C2=Nc3ccc(C#Cc4ccc(Cl)cc4)cc3NC(=O)C2)c1` [Example 16, 3-[7-(4-Chloro-phenylethynyl)-4-oxo-4,5-dihydro-3H-benzo[b][1,4]diazepin-2-yl]-benzonitrile], the melting point was 237 to 240 °C (dec.). The same measure for `O=C1CC(c2cccc(Cl)c2)=Nc2ccc(-c3ccccc3)cc2N1` [Example 19, 4-(3-Chloro-phenyl)-8-phenyl-1,3-dihydro-benzo[b][1,4]diazepin-2-one]: 208 °C (dec.); for `N#Cc1cccc(C2=Nc3ccc(-c4cccc5ccccc45)cc3NC(=O)C2)c1` [Example 20, 3-(7-Naphthalen-1-yl-4-oxo-4,5-dihydro-3H-benzo[b][1,4]diazepin-2-yl)-benzonitrile]: 240 to 245 °C (dec.); for `N#Cc1cccc(C2=Nc3ccc(C#Cc4nccs4)cc3NC(=O)C2)c1` [Example 21, 3-(4-Oxo-7-thiazol-2-ylethynyl-4,5-dihydro-3H-benzo[b][1,4]diazepin-2-yl)-benzonitrile]: 230 °C (dec.). Then `Cc1ccc(-c2ccc3c(c2)NC(=O)CC(c2cccc(C#N)c2)=N3)cc1` [Example 22, 3-(4-Oxo-7-p-tolyl-4,5-dihydro-3H-benzo[b][1,4]diazepin-2-yl)-benzonitrile], with 242 to 245 °C (dec.); and `O=C1CC(c2sccc2Cl)=Nc2ccc(-c3ccccn3)cc2N1` [Example 23, 4-(3-Chloro-thiophen-2-yl)-8-pyridin-2-yl-1,3-dihydro-benzo[b][1,4]diazepin-2-one], with 220 to 225 °C (dec.).

On to `N#Cc1cccc(C2=Nc3ccc(-c4cccs4)cc3NC(=O)C2)c1` [Example 24, 3-(4-Oxo-7-thiophen-2-yl-4,5-dihydro-3H-benzo[b][1,4]diazepin-2-yl)-benzonitrile], for which the melting point was > 250 °C (dec.). The compound `O=C1CC(c2cccs2)=Nc2ccc(I)cc2N1` [Example 25, 8-Iodo-4-thiophen-2-yl-1,3-dihydro-benzo[b][1,4]diazepin-2-one] came in with a melting point greater than 260 °C. Take `N#Cc1cccc(C2=Nc3ccc(C#Cc4ccccn4)cc3NC(=O)C2)c1` [Example 26, 3-(4-Oxo-7-pyridin-2-ylethynyl-4,5-dihydro-3H-benzo[b][1,4]diazepin-2-yl)-benzonitrile]: the melting point was 229 to 231 °C (dec.).

Take `N#Cc1cccc(C2=Nc3ccc(-c4ccccn4)cc3NC(=O)C2)c1` [Example 28, 3-(4-Oxo-7-pyridin-2-yl-4,5-dihydro-3H-benzo [b][1,4]diazepin-2-yl)-benzonitrile]: the melting point is 243 to 244 °C (dec.).

On to `O=C1CC(c2ccsc2)=Nc2ccc(-c3ccccc3)cc2N1` [Example 29, 8-Phenyl-4-thiophen-3-yl-1,3-dihydro-benzo [b][1,4]diazepin-2-one], for which the melting point is 233 °C (dec.). Then `Cc1cccc(-c2ccc3c(c2)NC(=O)CC(c2cccc(C#N)c2)=N3)c1` [Example 30, 3-(4-Oxo-7-m-tolyl-4,5-dihydro-3H-benzo [b][1,4]diazepin-2-yl)-benzonitrile], with 248 to 251 °C (dec.); and `N#Cc1cccc(C2=Nc3ccc(-c4ccc(Cl)c(Cl)c4)cc3NC(=O)C2)c1` [Example 31, 3-[7-(3,4-Dichloro-phenyl)-4-oxo-4,5-dihydro-3H-benzo [b][1,4]diazepin-2-yl]-benzonitrile], with 252 to 255 °C (dec.); and `O=C1CC(c2cccc(C(F)(F)F)c2)=Nc2ccc(-c3ccccc3)cc2N1` [Example 32, 8-Phenyl-4-(3-trifluoromethyl-phenyl)-1,3-dihydro-benzo [b][1,4]diazepin-2-one], with 210 °C (dec.). For `N#Cc1cccc(C2=Nc3ccc(-c4ccccc4Cl)cc3NC(=O)C2)c1` [Example 33, 3-[7-(2-Chloro-phenyl)-4-oxo-4,5-dihydro-3H-benzo [b][1,4]diazepin-2-yl]-benzonitrile], the melting point is 240 to 244 °C (dec.). As to `Cc1ccccc1-c1ccc2c(c1)NC(=O)CC(c1sccc1Cl)=N2` [Example 34, 4-(3-Chloro-thiophen-2-yl)-8-o-tolyl-1,3-dihydro-benzo [b][1,4]diazepin-2-one], the melting point is 247 to 248 °C (dec.). Take `O=C1CC(c2cccc(Cl)c2)=Nc2ccc(C(=O)c3ccccc3)cc2N1` [Example 35, 8-Benzoyl-4-(3-chloro-phenyl)-1,3-dihydro-benzo [b][1,4]diazepin-2-one]: the melting point is 199 to 202 °C (dec.). Then `N#Cc1cccc(C2=Nc3ccc(C(=O)c4ccccc4)cc3NC(=O)C2)c1` [Example 36, 3-(7-Benzoyl-4-oxo-4,5-dihydro-3H-benzo [b][1,4]diazepin-2-yl)-benzonitrile], with 207 °C (dec.); and `O=C1CC(c2sccc2Cl)=Nc2ccc(-c3ccccc3)cc2N1` [Example 38, 4-(3-Chloro-thiophen-2-yl)-8-phenyl-1,3-dihydro-benzo [b][1,4]diazepin-2-one], with 228 °C (dec.). Then `COc1cccc(-c2ccc3c(c2)NC(=O)CC(c2cccc(C#N)c2)=N3)c1` [Example 39, 3-[7-(3-Methoxy-phenyl)-4-oxo-4,5-dihydro-3H-benzo [b][1,4]diazepin-2-yl]-benzonitrile], with 240 to 243 °C (dec.); and `N#Cc1cccc(C2=Nc3ccc(-c4cccnc4)cc3NC(=O)C2)c1` [Example 40, 3-(4-Oxo-7-pyridin-3-yl-4,5-dihydro-3H-benzo [b][1,4]diazepin-2-yl)-benzonitrile], with 210 to 214 °C (dec.). The same measure for `O=C1CC(c2cccs2)=Nc2ccc(-c3ccc(=O)[nH]c3)cc2N1` [Example 41, 8-(6-Oxo-1,6-dihydro-pyridin-3-yl)-4-thiophen-2-yl-1,3-dihydro-benzo [b][1,4]diazepin-2-one]: greater than 250 °C; for `O=C1CC(c2cccc(C(F)(F)F)c2)=Nc2ccc(-c3ccc(OCc4ccccc4)nc3)cc2N1` [Example 42, 8-(6-Benzyloxy-pyridin-3-yl)-4-(3-trifluoromethyl-phenyl)-1,3-dihydro-benzo [b][1,4]diazepin-2-one]: 195 °C (dec.); for `N#Cc1cccc(C2=Nc3ccc(-c4ccc(OC(F)(F)F)cc4)cc3NC(=O)C2)c1` [Example 43, 3-[4-Oxo-7-(4-trifluoromethoxy-phenyl)-4,5-dihydro-3H-benzo [b][1,4]diazepin-2-yl]-benzonitrile]: 237 to 241 °C (dec.). In the case of `N#Cc1cccc(C2=Nc3ccc(-c4ccncc4)cc3NC(=O)C2)c1` [Example 44, 3-(4-Oxo-7-pyridin-4-yl-4,5-dihydro-3H-benzo[b][1,4]diazepin-2-yl)-benzonitrile], the melting point was > 200 °C (dec.). The same measure for `N#Cc1cccc(C2=Nc3ccc(C4=CCN(S(=O)(=O)c5ccccc5)CC4)cc3NC(=O)C2)c1` [Example 45, 3-[7-(1-Benzenesulfonyl-1,2,3,6-tetrahydro-pyridin-4-yl)-4-oxo-4,5-dihydro-3H-benzo [b][1,4]diazepin-2-yl]-benzonitrile]: 92 to 95 °C (dec.).

(Values after patent US6509328B1, “Glutamate receptor antagonists” (Hoffmann-La Roche Inc., priority 1999, dated 2003).)
